Measurements taken from patent publication US20260152487A1 (Sitryx Therapeutics Limited, priority 2021, published 2026).

Key:
[1] = target: T1, recombinant human PKM2 (Homo sapiens, UniProt P14618); assay: Human PKM2 activation assay (Kinase-Glo Plus luminescent detection of generated ATP); assay type: biochemical; settings: for Emax: percentage activation normalised to DMSO vehicle (LOW) and 5 μM TEPP-46 (HIGH), read-out: hPKM2 Emax; for EC50: recombinant human PKM2 activation, 4-parameter logistic fit, read-out: hPKM2 EC50
T1 construct: His (N); purchased R&D Systems
T1 sequence (P14618 2-531 limits assumed): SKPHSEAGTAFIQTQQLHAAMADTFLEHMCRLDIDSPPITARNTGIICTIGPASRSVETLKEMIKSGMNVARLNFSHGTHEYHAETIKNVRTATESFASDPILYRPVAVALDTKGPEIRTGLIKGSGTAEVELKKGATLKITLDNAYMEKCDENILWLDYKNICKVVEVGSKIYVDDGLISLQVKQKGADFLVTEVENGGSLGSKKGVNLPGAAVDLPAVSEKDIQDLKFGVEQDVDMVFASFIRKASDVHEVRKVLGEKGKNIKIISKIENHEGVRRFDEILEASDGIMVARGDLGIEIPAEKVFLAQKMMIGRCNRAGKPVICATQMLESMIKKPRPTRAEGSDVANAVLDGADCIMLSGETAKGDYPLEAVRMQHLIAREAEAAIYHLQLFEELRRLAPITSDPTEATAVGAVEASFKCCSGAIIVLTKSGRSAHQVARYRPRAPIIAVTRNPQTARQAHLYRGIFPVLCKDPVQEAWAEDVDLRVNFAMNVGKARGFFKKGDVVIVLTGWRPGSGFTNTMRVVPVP
How it was run: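 Luminescent ATP detection (Kinase-Glo Plus, 15 min, 26 °C) followed a 60 min, 26 °C shaken reaction of compound with […] His-tagged human PKM2, PEP and ADP in imidazole/KCl/MgCl2 buffer with Tween20 and BSA, pH 7.2.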

[2] = test system: A549 cells; assay: A549 cell proliferation in low-serine medium (CellTiter-Glo 2.0 viable cell number); assay type: cell-based; settings: Homo sapiens, 72 h, 3 days, Assay Medium with 20 μM L-serine
Description: The effect of compounds of Formula (Ia) on A549 cell proliferation in low-serine medium was assessed using a luminescence assay of viable cell number (CellTiter-Glo® 2.0, Promega) duplexed with a fluorescent cytotoxicity assessment (CelITox™ Green, Promega). Cell culture reagents were from ThermoFisher unless specified otherwise. Assay reagents were from Sigma-Aldrich unless specified otherwise. Test Compounds were prepared as 10 mM DMSO stocks and dilution series prepared in DMSO for direct dilution into culture medium.
Cells were passaged every 3-4 days at 80-90% confluence. The cell monolayer was washed twice with room-temperature Ca^2+/Mg-free PBS and 4 ml room-temperature trypsin-EDTA added to the flask. After 5 minutes' incubation (37° C., 5% CO2) to detach cells, trypsin was quenched with 13 ml warmed complete growth medium and the cells harvested and diluted to 2.4×10^4 cells/ml for dispensing into 384-well clear-bottom black-walled plates (600 cells/well).
Following overnight incubation, growth medium was aspirated from each well and the cells washed twice with Assay Medium comprising Basal Medium Eagle supplemented with 3% heat-inactivated dialysed FBS plus 2 mM L-glutamine plus 20 μM L-serine (Sigma-Aldrich). After aspiration of the final wash medium, Assay Medium containing Test Compound was added to each well. DMSO vehicle controls were included on each plate.
Cells were incubated for 3 days in a humidified incubator (37° C., 5% CO2) at which point CelITox™ Green and CellTiter-Glo® reagents were prepared according to the manufacturer's instructions. Triton-X was added to HIGH wells for cytotoxicity determination and the plate incubated for 30 minutes (20° C., ambient humidity and pCO2). CelITox™ Green reagent was added to each well and the plate covered, placed on an orbital shaker @450 rpm for 2 minutes, and incubated in the dark for 15 minutes (20° C., ambient humidity and pCO2). Endpoint fluorescence was measured using a plate reader (PHERAstar® FSX, BMG Labtech).
Following cytotoxicity determination, CellTiter-Glo® reagent was added to each well and the plate placed on an orbital shaker @450 rpm for 2 minutes to lyse cells. Plates were incubated in the dark for 15-30 minutes (20° C., ambient humidity and pCO2) prior to endpoint luminescence measurement (PHERAstar® FSX, BMG Labtech).
Proliferation was calculated by normalizing luminescence signals to LOW controls obtained from a parallel plate processed at the time of Test Compound challenge and HIGH (DMSO vehicle) wells from the compound plate. IC50 values were determined from a 4-parameter logistic fit of compound concentration-response curves.

SMILES	Emax [1]	EC50 [1]	IC50 [2]
Cc1c[nH]nc1Cn1ncc2cc(S(=O)(=O)c3ccccc3)ccc2c1=O [Example 12, 2-((4-methyl-1H-pyrazol-3-yl)methyl)-6-(phenylsulfonyl)phthalazin-1(2H)-one]	92%	0.0636 µM	0.0027 µM
O=c1c2ccc(S(=O)(=O)c3ccccc3)cc2cnn1Cc1ccccc1CO [Example 20, 2-(2-(hydroxymethyl)benzyl)-6-(phenylsulfonyl)phthalazin-1(2H)-one]	90.7%	0.249 µM	0.0064 µM
O=c1c2ccc(S(=O)(=O)c3ccccc3)cc2cnn1Cc1ccc(OCCO)nc1 [Example 21, 2-((6-(2-hydroxyethoxy)pyridin-3-yl)methyl)-6-(phenylsulfonyl)phthalazin-1(2H)-one]	102%	0.131 µM	0.0121 µM
COc1ccc(S(=O)(=O)c2ccc3c(=O)n(Cc4ccn(CCO)n4)ncc3c2)cc1 [Example 24, 2-((1-(2-hydroxyethyl)-1H-pyrazol-3-yl)methyl)-6-((4-methoxyphenyl)sulfonyl)phthalazin-1(2H)-one]	123%	0.107 µM	0.003 µM
O=c1c2ccc(S(=O)(=O)c3ccccc3)cc2cnn1Cc1ccc2c(c1)OCCO2 [Example 29, 2-((2,3-dihydrobenzo[b][1,4]dioxin-6-yl)methyl)-6-(phenylsulfonyl)phthalazin-1(2H)-one]	85%	0.0337 µM	0.0008 µM
Cc1ncc(Cn2ncc3cc(S(=O)(=O)c4ccccc4)ccc3c2=O)s1 [Example 30, 2-((2-methylthiazol-5-yl)methyl)-6-(phenylsulfonyl)phthalazin-1(2H)-one]	99.4%	0.739 µM	0.0158 µM
O=c1c2ccc(S(=O)(=O)c3ccccc3)cc2cnn1Cc1cccc2nccn12 [Example 34, 2-(imidazo[1,2-a]pyridin-5-ylmethyl)-6-(phenylsulfonyl)phthalazin-1(2H)-one]	79%	0.506 µM	0.0648 µM
CC1(C)Cc2cc(Cn3ncc4cc(S(=O)(=O)c5ccccc5)ccc4c3=O)ccc2O1 [Example 35, 2-((2,2-dimethyl-2,3-dihydrobenzofuran-5-yl)methyl)-6-(phenylsulfonyl)phthalazin-1(2H)-one]	110%	0.183 µM	0.0104 µM
Cn1ncc2cc(Cn3ncc4cc(S(=O)(=O)c5ccccc5)ccc4c3=O)ccc21 [Example 36, 2-((1-methyl-1H-indazol-5-yl)methyl)-6-(phenylsulfonyl)phthalazin-1(2H)-]	70%	0.207 µM	0.0206 µM
COc1cccc(Cn2ncc3cc(S(=O)(=O)c4ccccc4)ccc3c2=O)n1 [Example 37, 2-((6-methoxypyridin-2-yl)methyl)-6-(phenylsulfonyl)phthalazin-1(2H)-one]	118%	0.133 µM	0.0036 µM
Cn1ncc2ccc(Cn3ncc4cc(S(=O)(=O)c5ccccc5)ccc4c3=O)cc21 [Example 39, 2-((1-methyl-1H-indazol-6-yl)methyl)-6-(phenylsulfonyl)phthalazin-1(2H)-one]	71.9%	0.15 µM	0.0074 µM
COc1ccc(S(=O)(=O)c2ccc3c(=O)n(Cc4cccc(OC(F)F)c4)ncc3c2)cc1 [Example 40, 2-(3-(difluoromethoxy)benzyl)-6-((4-methoxyphenyl)sulfonyl)phthalazin-1(2H)-one]	90%	0.0427 µM	0.0037 µM
COc1ccc(S(=O)(=O)c2ccc3c(=O)n(Cc4cccnc4)ncc3c2)cc1 [Example 42, 6-((4-methoxyphenyl)sulfonyl)-2-(pyridin-3-ylmethyl)phthalazin-1(2H)-one]	103%	0.0645 µM	0.0015 µM
COc1ccc(S(=O)(=O)c2ccc3c(=O)n(Cc4ccc(Cl)cc4F)ncc3c2)cc1 [Example 46, 2-(4-chloro-2-fluorobenzyl)-6-((4-methoxyphenyl)sulfonyl)phthalazin-1(2H)-one]	76%	0.234 µM	0.0048 µM
COc1ccc(S(=O)(=O)c2ccc3c(=O)n(Cc4n[nH]c5ccccc45)ncc3c2)cc1 [Example 48, 2-((1H-indazol-3-yl)methyl)-6-((4-methoxyphenyl)sulfonyl)phthalazin-1(2H)-one]	85.8%	0.0552 µM	0.0016 µM
COc1ccc(S(=O)(=O)c2ccc3c(=O)n(Cc4ccccc4)ncc3c2)cc1 [Example 50, 2-benzyl-6-((4-methoxyphenyl)sulfonyl)phthalazin-1(2H)-one]	97.5%	0.0706 µM	0.0031 µM
COc1ccc(S(=O)(=O)c2ccc3c(=O)n(Cc4ccc(OC)nc4)ncc3c2)cc1 [Example 51, 6-((4-methoxyphenyl)sulfonyl)-2-((6-methoxypyridin-3-yl)methyl)phthalazin-1(2H)-one]	104%	0.0241 µM	0.0035 µM

More lines, in order of falling EC50 [1], values ahead:

Emax [1]	EC50 [1]	IC50 [2]	SMILES
74.9%	0.809 µM	0.042 µM	COc1cncc(Cn2ncc3cc(S(=O)(=O)c4ccccc4)ccc3c2=O)c1 [Example 31, 2-((5-methoxypyridin-3-yl)methyl)-6-(phenylsulfonyl)phthalazin-1(2H)-one]
83.5%	0.435 µM	0.0262 µM	COc1ccc(S(=O)(=O)c2ccc3c(=O)n(Cc4ccno4)ncc3c2)cc1 [Example 45, 2-(isoxazol-5-ylmethyl)-6-((4-methoxyphenyl)sulfonyl)phthalazin-1(2H)-one]
63%	0.367 µM	0.0418 µM	COc1ccc(S(=O)(=O)c2ccc3c(=O)n(CCc4ccccc4)ncc3c2)cc1 [Example 44, 6-((4-methoxyphenyl)sulfonyl)-2-phenethylphthalazin-1(2H)-one]
124%	0.243 µM	0.0158 µM	NC(=O)c1c[nH]nc1Cn1ncc2cc(S(=O)(=O)c3ccccc3)ccc2c1=O [Example 15, 3-((1-oxo-6-(phenylsulfonyl)phthalazin-2(1H)-yl)methyl)-1H-pyrazole-4-carboxamide]
99.6%	0.163 µM	0.0032 µM	O=c1c2ccc(S(=O)(=O)c3ccccc3)cc2cnn1Cc1ccccc1F [Example 32, 2-(2-fluorobenzyl)-6-(phenylsulfonyl)phthalazin-1(2H)-one]
65.3%	0.133 µM	0.0042 µM	O=c1c2ccc(S(=O)(=O)c3ccccc3)cc2cnn1C(CO)c1ccccc1 (stereo not drawn) [Example 19, 2-(2-hydroxy-1-phenylethyl)-6-(phenylsulfonyl)phthalazin-1(2H)-one]
113%	0.117 µM	0.0031 µM	NC(=O)c1sccc1Cn1ncc2cc(S(=O)(=O)c3ccccc3)ccc2c1=O [Example 13, 3-((1-oxo-6-(phenylsulfonyl)phthalazin-2(1H)-yl)methyl)thiophene-2-carboxamide]
54.9%	0.112 µM	0.0029 µM	CNC(=O)c1occc1Cn1ncc2cc(S(=O)(=O)c3ccc(OC)cc3)ccc2c1=O [Example 17, 3-((6-((4-methoxyphenyl)sulfonyl)-1-oxophthalazin-2(1H)-yl)methyl)-N-methylfuran-2-carboxamide]
105%	0.0633 µM	0.0017 µM	COc1ccc(F)c(Cn2ncc3cc(S(=O)(=O)c4ccccc4)ccc3c2=O)c1 [Example 33, 2-(2-fluoro-5-methoxybenzyl)-6-(phenylsulfonyl)phthalazin-1(2H)-one]
111%	0.0425 µM	0.0017 µM	COc1ccc(S(=O)(=O)c2ccc3c(=O)n(Cc4ccccc4N)ncc3c2)cc1 [Example 43, 2-(2-aminobenzyl)-6-((4-methoxyphenyl)sulfonyl)phthalazin-1(2H)-one]
87.9%	0.0255 µM	0.0005 µM	COc1ccc(S(=O)(=O)c2ccc3c(=O)n(Cc4ccc5c(c4)CCO5)ncc3c2)cc1 [Example 47, 2-((2,3-dihydrobenzofuran-5-yl)methyl)-6-((4-methoxyphenyl)sulfonyl)phthalazin-1(2H)-one]
